The results in this text go back to US12043600B2, “Microbiocidal compounds” (SYNGENTA CROP PROTECTION AG, priority 2018, dated 2024).

For data set [1], the system named is Glomerella lagenarium (Colletotrichum lagenarium). In words: Glomerella lagenarium (Colletotrichum lagenarium)/Liquid Culture (Anthracnose). The data set is classed as cell-based. Conditions: Colletotrichum orbiculare, liquid culture, compared to untreated control.
Data set [2] has as its system Botryotinia fuckeliana (Botrytis cinerea). Kind of data set: Botryotinia fuckeliana (Botrytis cinerea)/Liquid Culture (Gray Mould). The data set is classed as cell-based. Conditions: liquid culture, compared to untreated control. As for the experimental part: Conidia of the fungus from cryogenic storage are directly mixed into nutrient broth (Vogels broth). After placing a (DMSO) solution of test compound into a microtiter plate (96-well format), the nutrient broth containing the fungal spores is added.

Data set [3] deals with Puccinia recondita f. sp. tritici. Kind of data set: Puccinia recondita f. sp. tritici/Wheat/Leaf Disc Preventative (Brown Rust). The note with it: foliar, 200 ppm, wheat leaf disc preventative, compared to untreated control, read-out: control of Puccinia recondita f. sp. tritici. The data set is classed as in vivo.
Data set [4] has as its system Magnaporthe grisea (Pyricularia oryzae). In words: whole plant or invertebrate. The data set is classed as in vivo. The note with it: foliar, read-out: control of Magnaporthe grisea.
Data set [5] concerns Mycosphaerella graminicola (Septoria tritici). In words: Mycosphaerella graminicola (Septoria tritici)/Liquid Culture (Septoria Blotch). Type of data set: cell-based. The note with it: Zymoseptoria tritici; 20 ppm; liquid culture; compared to untreated control. In outline: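 Results given as % disease control: test compound in DMSO was placed in wells first, then potato dextrose broth carrying cryostored fungal conidia was added.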

For a further data set, the system named is Pythium ultimum. In words: Pythium ultimum/Liquid Culture (Seedling Damping Off). Type of data set: cell-based. The note with it: Globisporangium ultimum, liquid culture, compared to untreated control. How it is done:
Mycelia fragments and oospores of a newly grown liquid culture of the fungus are directly mixed into nutrient broth (PDB potato dextrose broth). After placing a (DMSO) solution of test compound into a microtiter plate (96-well format), the nutrient broth containing the fungal mycelia/spore mixture is added.

The next data set has as its system Phytophthora infestans. In words: whole plant or invertebrate. The note with it: in Solanum lycopersicum, foliar, read-out: control of Phytophthora infestans. Type of data set: in vivo.
Data set [6] relates to Mycosphaerella arachidis (Cercospora arachidicola). In words: Mycosphaerella arachidis (Cercospora arachidicola)/Liquid Culture (Early Leaf Spot). The note with it: liquid culture, compared to untreated control. Type of data set: cell-based. In outline:
(§1)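 PDB + cryo-stored conidia; compound in DMSO pre-plated, spore broth added on top.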

The subject of data set [7] is Monographella nivalis (Microdochium nivale). In words: Monographella nivalis (Microdochium nivale)/Liquid Culture (Foot Rot Cereals). Type of data set: cell-based. Conditions: liquid culture, compared to untreated control. In short, it runs like this:
as §1

Data set [8] has as its system Puccinia recondita f. sp. tritici. Kind of data set: Puccinia recondita f. sp. tritici/Wheat/Leaf Disc Curative (Brown Rust). The data set is classed as in vivo. Conditions: foliar, wheat leaf disc curative, compared to untreated control. In outline: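 Formulated compound, diluted in water, is applied to inoculated wheat cv. Kanzler leaf segments on agar one day post-inoculation (pre-incubation dark, 19° C, 75% rh). After 6-8 days at 19° C, 75% rh and 12 h/12 h light, activity is rated as percent disease control relative to untreated segments.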

The subject of the next data set is Plasmopara viticola. Kind of data set: whole plant or invertebrate. Type of data set: in vivo. Conditions: foliar, read-out: control of Plasmopara viticola.
Data set [9] deals with Phaeosphaeria nodorum (Septoria nodorum). Kind of data set: Phaeosphaeria nodorum (Septoria nodorum)/Wheat/Leaf Disc Preventative (Glume Blotch). The data set is classed as in vivo. The note with it: Parastagonospora nodorum, foliar, wheat leaf disc preventative, compared to untreated control. In short, it runs like this: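 Preventative test: compound spray first, then spore inoculation after 2 days on cv. Kanzler wheat leaf segments. Incubation in a climate cabinet at 20 °C and 75% rh under a 12 h light/12 h dark cycle. Activity rated as % control relative to untreated discs at 5–7 days post-application.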

For data set [10], the system named is Blumeria graminis f. sp. tritici (Erysiphe graminis f. sp. tritici). In words: Blumeria graminis f. sp. tritici/Wheat/Leaf Disc Preventative (Powdery Mildew on Wheat). The data set is classed as in vivo. The note with it: foliar, wheat leaf disc preventative, compared to untreated control. In short, it runs like this: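 Preventative leaf-disc test: percent disease control versus untreated leaf segments read 6-8 days post-application. Compound spray applied to wheat cv. Kanzler segments on agar one day before shaking infected plants over them; incubation at 20° C and 60% rh, 24 h darkness then 12 h light/12 h dark cycles.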

In another data set the test system is Phakopsora pachyrhizi. Kind of data set: Phakopsora pachyrhizi/Soybean/Preventative (Soybean Rust). The data set is classed as in vivo. The note with it: foliar, 288 h, 200 ppm, soybean leaf disc preventative, compared to untreated control, read-out: control of Phakopsora pachyrhizi.
The test system of data set [11] is Thanatephorus cucumeris (Rhizoctonia solani). In words: Thanatephorus cucumeris (Rhizoctonia solani)/Liquid Culture (Foot Rot, Damping-Off). The data set is classed as cell-based. Conditions: liquid culture, compared to untreated control. As for the experimental part: Mycelia fragments of a newly grown liquid culture of the fungus are directly mixed into nutrient broth (PDB potato dextrose broth). After placing a (DMSO) solution of the test compounds into a microtiter plate (96-well format), the nutrient broth containing the fungal material is added.

A further data set deals with Sclerotinia sclerotiorum. In words: Sclerotinia sclerotiorum/Liquid Culture (Cottony Rot). The note with it: liquid culture, compared to untreated control. The data set is classed as cell-based. As for the experimental part: Mycelia fragments of a newly grown liquid culture of the fungus are directly mixed into nutrient broth (PDB potato dextrose broth). After placing a (DMSO) solution of test compound into a microtiter plate (96-well format) the nutrient broth containing the fungal material is added.

In a further data set the test system is Alternaria solani. Kind of data set: Alternaria solani/Tomato/Leaf Disc (Early Blight). Conditions: foliar, tomato leaf disc, compared to untreated control. Type of data set: in vivo. In outline:
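Protective leaf-disc test: compound sprayed onto tomato cv. Baby disks, spore inoculation following after 2 days. Disks kept at 80% rh, 12/12 h light/dark, 23° C. day and 21° C. night; activity read as percent disease control relative to untreated checks 5-7 days post-application.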

Data set [12] is described as follows: Photostability assay (Atlas Suntest). Conditions: Suntest 750 W/m^2, spotted on microscope slides. Type of data set: physicochemical. How it is done:
The testing method to measure the photostability data of each compound in table is D1 is as specifically described below. The objective of the photostability assay was to determine the stability of the individual test compounds in a strictly controlled and reproducible environment allowing a comparison of their photostability.
Method: Compounds were dissolved in methanol (HPLC grade) to give 1 g/L stock solutions. Compound stock solution (2 μl) was spotted onto microscope slides in a 3D printed holder and put into the Atlas Suntest. The spectral output power of the Suntest was set to 750 W/m^2, which is considered typical of the daily maximum (noon) irradiance level on a very bright British Summer day. At specific time points slides were removed from the Suntest and placed in 4D vials. Wash solvent made up of 50:40:10 H2O:MeCN:THF (1 mL) is then added to the vials and whirlimixed. The resulting solution is then subsampled to an HPLC vial to be analysed. A Waters UPLC system with Photodiode Array was used with a Waters reverse phase column (BEH C18, 100×2.1 mm×1.7 μm) and acetonitrile (HPLC grade) acidified water (0.2% formic acid) mobile phase at a flow rate of 0.6 mL/min. Peak detection was at the optimum wavelength and peak areas were used for quantification
Initial and subsequent measurements of peak area attributable to the test compound were used to provide a % parent remaining at 3 hours.

Another data set concerns Pyrenophora teres. Kind of data set: Pyrenophora teres/Barley/Leaf Disc Preventative (Net Blotch). The data set is classed as in vivo. Conditions: foliar, 200 ppm, barley leaf disc preventative, compared to untreated control, read-out: control of Pyrenophora teres. In outline: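 Preventative leaf-disc test: inoculation with fungal spores took place 2 days after spraying segments of barley cv. Hasso, placed on agar, with water-diluted formulated compound. Read-out is % disease control per compound.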

Regarding `CO/C=C(\Oc1cc(-n2ccc(C3CCCC3)n2)ccc1C)C(=O)OC` [Compound E-5, methyl (Z)-2-[5-(3-cyclopentylpyrazol-1-yl)-2-methyl-phenoxy]-3-methoxy-prop-2-enoate], the inhibition of growth at 20 ppm (in data set [1]; in [2]; in [5]; in the data set on Pythium ultimum; in data set [6]; in data set [7]) was at least 80% each time. For the same molecule, the pest or weed control at 200 ppm (in data set [3]; in [4]; in the data set on Phytophthora infestans; in data set [8]; in the data set with Plasmopara viticola) was at least 80% throughout.

Molecule `CO/C=C(\Oc1cc(-n2ccc(C(C)C)n2)cc(F)c1C)C(=O)OC` [Compound E-7, methyl (Z)-2-[3-fluoro-5-(3-isopropylpyrazol-1-yl)-2-methyl-phenoxy]-3-methoxy-prop-2-enoate] had a melting point of 114 to 116 °C. In data set [1], this molecule had an inhibition of growth at 20 ppm of at least 80%. For the same molecule, the pest or weed control at 200 ppm in data set [3] is at least 80%. In [4], the pest or weed control at 200 ppm is at least 80%. The inhibition of growth at 20 ppm in [5] is at least 80%. In the data set with Pythium ultimum, this molecule displayed an inhibition of growth at 20 ppm of at least 80%. Moreover, in [9], the pest or weed control at 200 ppm is at least 80%. Moreover, the pest or weed control at 200 ppm in the data set on Phytophthora infestans was at least 80%. In data set [6], the inhibition of growth at 20 ppm is at least 80%. In data set [10], this molecule came in with a pest or weed control at 200 ppm of at least 80%. The molecule also returned an inhibition of growth at 20 ppm in data set [7] of at least 80%. Also, the pest or weed control at 200 ppm in data set [8] is at least 80%. Further, the pest or weed control at 200 ppm in the data set with Plasmopara viticola was at least 80%. Further, in the data set with Phakopsora pachyrhizi, the pest or weed control at 200 ppm was at least 50%.

`CO/C=C(\Oc1cc(-n2ccc(C3(F)CC3)n2)ccc1C)C(=O)OC` [Compound E-67, methyl (Z)-2-[5-[3-(1-fluorocyclopropyl)pyrazol-1-yl]-2-methyl-phenoxy]-3-methoxy-prop-2-enoate] showed a melting point of 128 to 131 °C. In data set [1], this molecule gave an inhibition of growth at 20 ppm of at least 80%. For the same molecule, in data set [11], the inhibition of growth at 20 ppm was at least 80%. The inhibition of growth at 20 ppm with Sclerotinia sclerotiorum was at least 80%. The pest or weed control at 200 ppm in [3] is at least 80%. Further, the inhibition of growth at 20 ppm in data set [5] is at least 80%. Moreover, in data set [9], the pest or weed control at 200 ppm was at least 80%. For the same molecule, the pest or weed control at 200 ppm in the data set with Phytophthora infestans is at least 80%. This molecule had a pest or weed control at 200 ppm in the data set on Alternaria solani of at least 80%. The inhibition of growth at 20 ppm in [6] was at least 80%. The “% Parent Remaining @ 3 hrs” value in [12] amounted to 37%. In data set [10], this molecule yielded a pest or weed control at 200 ppm of at least 80%. Besides, in [7], the inhibition of growth at 20 ppm was at least 80%. In addition, the pest or weed control at 200 ppm with Pyrenophora teres was at least 80%. Also, the pest or weed control at 200 ppm in [8] is at least 80%. The pest or weed control at 200 ppm in the data set on Plasmopara viticola was at least 80%.

As to `CO/C=C(\Oc1cccc(-n2ncc(C3CC3)n2)c1)C(=O)OC` [Compound F-9, methyl (Z)-2-[3-(4-cyclopropyltriazol-2-yl)phenoxy]-3-methoxy-prop-2-enoate], the inhibition of growth at 20 ppm (in [1]; in data set [5]; with Pythium ultimum; in data set [6]; in data set [7]) was at least 80% throughout. The pest or weed control at 200 ppm (in data set [3]; in the data set with Phytophthora infestans; in data set [10]; in [8]; with Plasmopara viticola) was at least 80% throughout.
